In patent EP0724884B1, “SIDE EFFECT INHIBITOR FOR CANCER THERAPY” (Nakamura, Toshikazu, priority 1991, dated 1993):

Test system: primary-culture hepatocytes
Assay: Leakage of GOT from primary-culture hepatocytes exposed to liver poison (Test Examples 1-4)
Assay type: cell-based, rat
Conditions: Liver poison alone, no addition of HGF (Carbon tetrachloride 5 mM; Mitomycin C 8 µM); culture for 24 hours; control 6.0 ± 0.4
Description: The primary culture was carried out as follows: Isolated hepatocytes were dispersed in William's medium (5% bovine serum, 10^-9 M insulin and 10^-9 M dexamethasone) and the cells were seeded in a 12-well plastic dish (Corning Co.) having the bottom coated with Type-I collagen. The culture medium was exchanged with the medium containing aprotinin at 0.5 µg/ml and without serum and hormones 2 hours later.
The protective effect of HGF on the hepatocytes was tested by the effect on the leakage to enzymes from the cytoplasm of the hepatocytes in the primary culture.
In order to mimick this phenomenon, hepatocyte primary-culture added with the liver poison was used. Thus the leakage of cytoplasmic enzymes such as GOT was measured in this culture system, and the protective activity on the hepatocytes by HGF was estimated along with measurement of the degree of inhibition of leakage of GOT or others. […]
The primary-culture hepatocytes described in Reference Example 3 were seeded at the surface density of 1.2 x 10^5 cells/cm^2 and on the next day, the medium was changed to one without serum, followed by the addition of HGF at 10 ng/ml and/or carbon tetrachloride at 5 mM. […] The GOT activity in the supernatant was measured by the conventional method. […]

ClC(Cl)(Cl)Cl [Carbon tetrachloride]
GOT activity: 12.7 ± 1.2 mU/ml
